pIC50: −log10 of the molar value.
System: SW1271 complex spheroids with HUVEC/MSC, growth, % test/control
Assay: Anticancer human tumor SW1271 cell line growth inhibition [AhR];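 note: spheroids exposed to agents for 7 days before readout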
Conditions: for pIC50: curve of first compound; for viability, T/C: stronger effect = lower value
From the text: Multicellular complex tumor spheroid response to aryl hydrocarbon receptor antagonists in combination with a variety of drugs and investigational agents in selected tumor cell lines
The current study was undertaken to assess response to aryl hydrocarbon receptor antagonists in combination with standard-of-care drugs and investigational agents in solid tumor complex spheroid models. Complex spheroids include a stromal component modeled by human endothelial cells (HUVEC) and fibroblasts modeled by human mesenchymal stem cells (MSCs). The concentration ranges selected for each drug and investigational agent were based upon clinically achievable concentrations if the clinical Cmax of the agent was known.
Compounds. The drugs and investigational agents: BAY 2416964 (NSC825713), GNF351 (NSC835774), CH-223191 (NSC835775), CPI-455 (NSC825282), aza-TdCyd (NSC777586), decitabine (NSC127716), belinostat (NSC758774), entinostat (NSC756642), pevonedistat (NSC761192), tazemetostat (NSC777109), talazoparib (NSC765396), olaparib (NSC753686), selinexor (NSC780203), nedisertib (M3814, NSC802822), bortezomib (NSC756655), venetoclax (NSC766270), doxorubicin (NSC123127), elimusertib (BAY189344, NSC800525), ceralasertib (AZD6738, NSC777638), TAK-243 (NSC785004), alisertib (NSC759677), etoposide (NSC141540), topotecan (NSC609699), eribulin (NSC707389), gemcitabine (NSC613327), carboplatin (NSC241240), cisplatin (NSC119875), and SN-38 (NSC673596) were obtained from the National Cancer Institute (NCI) Developmental Therapeutics Program Chemical Repository (32). The FDA-approved anticancer drug set is available from the Developmental Therapeutics Program at https://dtp.cancer.gov/organization/dscb/obtaining/available plates.htm. […] The stock solutions were prepared in dimethyl sulfoxide (DMSO, Sigma-Aldrich, St. Louis, MO, cat. D2650), except for the platinum compounds which were prepared in saline (Quality Biological, Gaithersburg, MD, cat. 114-055-101), at 800-fold the tested concentration and stored at -70 degrees C prior to their use. All drugs and investigational agents were tested over a range starting from a high concentration at or near the clinical Cmax and decreasing in half-log increments. If the clinical Cmax for an agent had not been determined, the highest concentration tested was 10 microM (Table 1).
Cell Culture. All cells were maintained in an incubator at 37 degrees C and 5% CO2 with 95% humidity. The PDC lines were cultured according to standard operating procedures established by the NCI PDMR (https://pdmr.cancer.gov). Briefly, all PDCs were thawed and cultured in Matrigel-coated flasks prepared with a working solution of 1X Ham's F-12 nutrient mix, without supplementation (Invitrogen, Waltham, MA, cat. 11765054), 100 U/mL penicillin-streptomycin (Invitrogen, cat. 15140122), and 2.5% Matrigel (Corning Inc., Corning, NY, cat. 354248) for the first three passages. All PDCs were cultured in complete DMEM/F-12 media containing advanced DMEM/F-12 (Invitrogen, cat. 12634028), 4.9% defined fetal bovine serum, heat inactivated (HyClone Laboratories Inc., Logan, UT, cat. SH30070.03HI), 389 ng/mL hydrocortisone (Sigma-Aldrich, cat. H4001), 9.7 ng/mL human EGF recombinant protein (Invitrogen, cat. PHG0313), 23.4 microg/mL adenine (Sigma-Aldrich, cat. A2786), 97.3 U/mL penicillin-streptomycin (Invitrogen, cat. 15140122), 1.9 mM L-glutamine (Invitrogen, cat. 25030081), and 9.7 microM Y-27632 dihydrochloride (Tocris Bioscience, Bristol, United Kingdom, cat. 1254). The PDCs were cultured in complete DMEM/F12 media without 10 microM Y-27632 dihydrochloride for at least two passages prior to the screen. The established cell lines NCI-H1341 and […] were cultured in DMEM/F-12, HEPES (Invitrogen, cat. 11330032), 5% defined fetal bovine serum (HyClone Laboratories Inc., cat. SH30070.03), ITS premix universal culture supplement [insulin (5 microg/mL), transferrin (5 microg/mL), and selenious acid (5 ng/mL)] […]

[1] = second compound 0.1 µM, first compound 0.0316 µM
[2] = second compound 0.1 µM, first compound 0.1 µM
[3] = second compound 0.1 µM, first compound 0.316 µM
[4] = second compound 0.1 µM, first compound 1 µM
[5] = second compound 0.1 µM, first compound 3.16 µM
[6] = second compound 0.1 µM, first compound 10 µM
[7] = second compound 0.316 µM, first compound 0.0316 µM
[8] = second compound 0.316 µM, first compound 0.1 µM
[9] = second compound 0.316 µM, first compound 0.316 µM
[10] = second compound 0.316 µM, first compound 1 µM
[11] = second compound 0.316 µM, first compound 3.16 µM
[12] = second compound 0.316 µM, first compound 10 µM
[13] = second compound 1 µM, first compound 0.0316 µM
[14] = second compound 1 µM, first compound 0.1 µM
[15] = second compound 1 µM, first compound 0.316 µM
[16] = second compound 1 µM, first compound 1 µM
[17] = second compound 1 µM, first compound 3.16 µM
[18] = second compound 1 µM, first compound 10 µM
[19] = second compound 3.16 µM, first compound 0.0316 µM
[20] = second compound 3.16 µM, first compound 0.1 µM
[21] = second compound 3.16 µM, first compound 0.316 µM
[22] = second compound 3.16 µM, first compound 1 µM
[23] = second compound 3.16 µM, first compound 3.16 µM
[24] = second compound 3.16 µM, first compound 10 µM
[25] = second compound 10 µM, first compound 0.0316 µM
[26] = second compound 10 µM, first compound 0.1 µM
[27] = second compound 10 µM, first compound 0.316 µM
[28] = second compound 10 µM, first compound 1 µM
[29] = second compound 10 µM, first compound 3.16 µM
[30] = second compound 10 µM, first compound 10 µM

Compound | pIC50 (second compound 0.1 µM) | pIC50 (second compound 0.316 µM) | pIC50 (second compound 1 µM) | pIC50 (second compound 3.16 µM) | pIC50 (second compound 10 µM) | viability, T/C [1] | viability, T/C [2] | viability, T/C [3] | viability, T/C [4] | viability, T/C [5] | viability, T/C [6] | viability, T/C [7] | viability, T/C [8] | viability, T/C [9] | viability, T/C [13] | viability, T/C [14] | viability, T/C [19] | viability, T/C [20] | viability, T/C [25] | viability, T/C [26] | further results
CC1(C)CCC(CN2CCN(c3ccc(C(=O)NS(=O)(=O)c4ccc(NCC5CCOCC5)c([N+](=O)[O-])c4)c(Oc4cnc5[nH]ccc5c4)c3)CC2)=C(c2ccc(Cl)cc2)C1 + CC(CO)NC(=O)c1cc(-c2ccc(Cl)cc2)nn(-c2cnn(C)c2)c1=O | < 5.00 | < 5.00 | < 5.00 | < 5.00 | < 5.00 | 85.8% | 90.7% | 107% | 98.6% | 82.7% | 71.5% | 84.4% | 73% | 71.8% | 91% | 89.3% | 68% | 70.2% | 70.8% | 69.3% | viability, T/C [10]: 84.2%; viability, T/C [11]: 100%; viability, T/C [12]: 78.3%; viability, T/C [15]: 78.8%; viability, T/C [16]: 80.4%; viability, T/C [17]: 85%; viability, T/C [18]: 86.3%; viability, T/C [21]: 91.4%; viability, T/C [22]: 82.5%; viability, T/C [23]: 60.7%; viability, T/C [24]: 88.6%; viability, T/C [27]: 74.7%; viability, T/C [28]: 54.8%; viability, T/C [29]: 78.2%; viability, T/C [30]: 78.2%
COc1cc(Nc2ncc3c(n2)-c2ccc(Cl)cc2C(c2c(F)cccc2OC)=NC3)ccc1C(=O)O + CC(CO)NC(=O)c1cc(-c2ccc(Cl)cc2)nn(-c2cnn(C)c2)c1=O | 5.21 | < 5.00 | < 5.00 | < 5.00 | 5.44 | 77.5% | 73.2% | 82.6% | 79.4% | 58.1% | 44% | 61.6% | 58% | 76.6% | 59.7% | 67.1% | 55.7% | 55.4% | 66.6% | 58.7% | viability, T/C [10]: 66%; viability, T/C [11]: 52.5%; viability, T/C [12]: 44.5%; viability, T/C [15]: 72.7%; viability, T/C [16]: 73.8%; viability, T/C [17]: 71.5%; viability, T/C [18]: 47.4%; viability, T/C [21]: 60.3%; viability, T/C [22]: 61.6%; viability, T/C [23]: 56.9%; viability, T/C [24]: 41.8%; viability, T/C [27]: 70.2%; viability, T/C [28]: 54.4%; viability, T/C [29]: 52.2%; viability, T/C [30]: 38.9%
Cn1ncnc1C1c2n[nH]c(=O)c3cc(F)cc(c23)NC1c1ccc(F)cc1 (stereo not given) + CC(CO)NC(=O)c1cc(-c2ccc(Cl)cc2)nn(-c2cnn(C)c2)c1=O | < 7.00 | < 7.00 | < 7.00 | < 7.00 | < 7.00 | 84% | 107% | – | – | – | – | 85.2% | 79.2% | – | 74.1% | 103% | 84.5% | 77.2% | 75.9% | 76.1% | viability, T/C (second compound 0.1 µM, first compound 0.000316 µM): 111%; viability, T/C (second compound 0.1 µM, first compound 0.001 µM): 104%; viability, T/C (second compound 0.1 µM, first compound 0.00316 µM): 95.8%; viability, T/C (second compound 0.1 µM, first compound 0.01 µM): 98%; viability, T/C (second compound 0.316 µM, first compound 0.000316 µM): 84.1%; viability, T/C (second compound 0.316 µM, first compound 0.001 µM): 87.1%; viability, T/C (second compound 0.316 µM, first compound 0.00316 µM): 104%; viability, T/C (second compound 0.316 µM, first compound 0.01 µM): 89%; viability, T/C (second compound 1 µM, first compound 0.000316 µM): 96.2%; viability, T/C (second compound 1 µM, first compound 0.001 µM): 101%; viability, T/C (second compound 1 µM, first compound 0.00316 µM): 73.7%; viability, T/C (second compound 1 µM, first compound 0.01 µM): 81.2%; viability, T/C (second compound 3.16 µM, first compound 0.000316 µM): 79.7%; viability, T/C (second compound 3.16 µM, first compound 0.001 µM): 73%; viability, T/C (second compound 3.16 µM, first compound 0.00316 µM): 71.4%; viability, T/C (second compound 3.16 µM, first compound 0.01 µM): 89.1%; viability, T/C (second compound 10 µM, first compound 0.000316 µM): 71.8%; viability, T/C (second compound 10 µM, first compound 0.001 µM): 74.6%; viability, T/C (second compound 10 µM, first compound 0.00316 µM): 61.4%; viability, T/C (second compound 10 µM, first compound 0.01 µM): 89.4%
NS(=O)(=O)OCC1CC(n2ccc3c(NC4CCc5ccccc54)ncnc32)CC1O (stereo not given) + CC(CO)NC(=O)c1cc(-c2ccc(Cl)cc2)nn(-c2cnn(C)c2)c1=O | 5.47 | 5.54 | 5.50 | < 5.00 | < 5.00 | 112% | 133% | 96.5% | 65.9% | 44.6% | 51.8% | 127% | 115% | 92.5% | 125% | 127% | 133% | 129% | 86.2% | 104% | viability, T/C [10]: 58.5%; viability, T/C [11]: 47.3%; viability, T/C [12]: 49.7%; viability, T/C [15]: 118%; viability, T/C [16]: 69.2%; viability, T/C [17]: 48.2%; viability, T/C [18]: 50.6%; viability, T/C [21]: 108%; viability, T/C [22]: 69.2%; viability, T/C [23]: 54%; viability, T/C [24]: 59.3%; viability, T/C [27]: 103%; viability, T/C [28]: 76%; viability, T/C [29]: 62.6%; viability, T/C [30]: 63.6%
